Measurements from patent US20190046490A1, “METHODS OF TREATING LACTOSE INTOLERANCE” (Nogra Pharma Limited, priority 2016, published 2019).
Entries after “also recorded” stand apart in the source; their conditions may differ.

Experiments:
LCT gene = assay: Transcriptome microarray analysis of LCT mRNA expression in Caco-2 cells treated with PPARγ modulators; type: cell-based, human; settings: vs unstimulated cells
Procedure: (§1) Caco-2 (colonic adenocarcinoma) cells were grown in Dulbecco's Modified Eagle's Medium (DMEM, Invitrogen, Life Technologies, Cergy-Pontoise, France) supplemented with 20% foetal calf serum (FCS, Dutscher, Brumath, France), 1% penicillin-streptomycin (5 ml/l) (Invitrogen, Life technologies) and 1% non-essential amino acids (5 ml/l) (Invitrogen, Life technologies). All cell lines were cultured as confluent monolayers at 37° C. in a controlled, 5% CO2 atmosphere.
(§2) For cell stimulations, 1×10^6 cells per well were seeded in 6-well plates. Cells were serum deprived for 16 hours prior to stimulation in order to synchronize the cells. Cells were treated with GED (Nogra Pharma Ltd, Ireland), pioglitazone (1 μM, Sigma-Aldrich) or CLA (various concentrations, Sigma-Aldrich). When necessary, the DMSO vehicle (Sigma-Aldrich) was used as control. After 24 hours of stimulation, cells were washed three times with sterile PBS before RNA extraction. Cell stimulations were performed in 4 replicates for microarray analysis and in 3, 4 or 6 replicates for other stimulations.
(§3) Cells were lysed with lysis buffer (RA1, Macherey-Nagel) containing 1% β-mercaptoethanol. Total RNA was extracted with a Nucleospin RNA kit (Macherey-Nagel, Hoerdt, France). After RNAse inactivation, total RNA was cleaned of genomic DNA traces by DNAse treatment and eluted in RNAse-free, DEPC-water. The purity of the RNA was evaluated by UV spectroscopy on a Nanodrop system (Nyxor Biotech, Paris, France) from 220 to 350 nm. Before microarray experiments, RNAs were also profiled on an Agilent 2100 bioanalyzer. One μg of total RNA with a minimum concentration of 50 ng/μl was used in the microarray and qRT-PCR analysis.
Dual-colour gene expression microarrays were used to compare the cRNA from the samples. 44,000 genes were screened. The RNAs from the samples were first reverse-transcribed into cDNA (Affinity-Script RT, Agilent), which were then used as the substrate for the synthesis and amplification of cRNA by T7 RNA polymerase in the presence of cyanine 3-CTP for the CTL sample (green fluorescence) and cyanine 5-CTP for the PPAR-γ y modulator sample (red fluorescence). The two-labelled cRNAs were mixed, hybridized on the same array (G4851A Agilent 8×44K) and then scanned (with an Agilent G2505B scanner). Fluorescence was visualized after laser excitation and the relative intensities of the two fluorophores were expressed as a ratio, in order to yield the over- or under-expression status of each gene (using GeneSpring software (Agilent)). This analysis was performed for each PPAR-γ modulator.

LCT activity = assay: Lactase activity in Caco-2 cells (glucose oxidase method); type: cell-based, human
Procedure: (§4) Lactase activity was evaluated by using a glucose oxidase method (Glucose Assay Kit, Sigma). This lactase assay is based on the measurement of the amount of glucose produced following the action of lactase by incubating samples with a lactose buffer solution (0.056 mol/l lactose in a 0.1 mol/l Na-maleate buffer). For Caco-2 cells, lactase activity was determined directly from the cell monolayer. After extensive washing, the cell monolayer was incubated with lactose buffer for one hour at 37° C. The supernatant was recovered, 50 μl were diluted with 100 μl of glucose oxidase reagent and incubated at 37° C. for 1 hour. The reaction was stopped with 100 μl of H2SO4 and read by spectrophotometry at 450 nm. When lactase activity was determined from intestinal sample, tissue samples were first dounce-homogenized in 0.9% NaCl on crushed ice. These homogenates were then diluted in 0.9% NaCl ( 1/500) and 50 μl of dilution were incubated with lactose buffer and used to determine lactase activity. For each experiment, the background attributed to the remaining glucose in the samples was measured by incubating cells or cell extracts in lactose-free buffer.

LCT mRNA = assay: Quantitative PCR of LCT mRNA expression in Caco-2 cells; type: cell-based, human; settings: for LCT mRNA expression relative to control (qPCR): 24 hours, normalized to GAPDH
Procedure: as §1, §2, §3
(§5) Expression of genes of interest was quantified by quantitative PCR (qPCR) of corresponding reverse transcribed mRNA. One μg of total RNA was reverse-transcribed into cDNA using the High Capacity cDNA Archive kit (Applied Biosystems). Amplification was performed using an ABI PRISM 7000 sequence detection system (Applied Biosystem) using Power SYBR® Green PCR master Mix (Applied Biosystem). Primer pairs for each human transcript were chosen with qPrimer depot software (at primerdepot.nci.nih.gov.). Quantification of qPCR signals was performed using ΔCt relative quantification method using GAPDH as a reference gene for human and rat samples and β-Actin for mouse samples. Values were represented in terms of relative quantity of mRNA level variation or fold increase compared to control conditions.

Caco-2 cells = assay: Glucose uptake assay (2-DG6P) in Caco-2 cells; type: cell-based, human; settings: 1 μM, 24 h
Procedure: Glucose uptake was evaluated by using the glucose uptake colorimetric assay kit (Sigma-Aldrich) according to the manufacturer's instructions. Briefly, Caco-2 cells were seeded into a 96-well plate at a density of 30,000 cells per well. Cells were serum deprived for 16 hours prior to stimulation in order to synchronize the cells. Cells were treated with GED (1 mM) or pioglitazone (1 μM) for 24 h. Cells were then washed 3 times with PBS and were glucose-starved by incubating with 100 μl of KRPH buffer (Krebs-Ringer-Phosphate-HEPES (KRPH) Buffer—20 mM HEPES, 5 mM KH2PO4, 1 mM MgSO4, 1 mM CaCl2, 136 mM NaCl, and 4.7 mM KCl, pH 7.4) containing 2% BSA for 40 minutes. 10 μl of 2-deoxyglucose (2-DG; 10 mM) was then added and incubation was continued for 20 minutes. 2-DG is taken up by the cells and phosphorylated by hexokinase to 2-DG6P, which cannot be further metabolized and accumulates in cells. Following incubation, cells were washed 3 times with PBS and lysed with 80 μl of the extraction buffer provided. The amount of 2-DG6P (which is directly proportional to glucose uptake by the cells) was determined by a colorimetric detection assay according to the manufacturer's protocol.

LCT = LCT mRNA and LCT activity in duodenum and jejunum of rats after 5 days oral gavage; type: in vivo, Sprague Dawley rats; settings: oral gavage 5 days, GED 30 mg/kg/day, CLA 200 mg/kg/day
Procedure: as §5, §4
(§6) To determine whether CLA induces LCT expression and activity in vivo, Sprague Dawley rats were fed a control diet and administered either carboxymethyl cellulose (CMC; 0.5%), CLA, or GED for 5 days, after which levels of PPARγ mRNA, LCT mRNA, and LCT activity were measured. CLA was administered at 200 mg/kg/day by oral gavage, and GED was administered at 30 mg/kg/day by oral gavage (FIG. 21A).

[1] = tested on: LCT in PPARγ knock-down Caco-2 cells; assay: LCT expression and activity in PPARγ knock-down Caco-2 cells (ShPPAR); type: cell-based, human; settings: ShPPAR vs ShLuc Caco-2 cells, 250-1000 μM
Procedure: as §5
Lactase activity was evaluated by using a glucose oxidase method (Glucose Assay Kit, Sigma). […] For Caco-2 cells, lactase activity was determined directly from the cell monolayer. […] The reaction was stopped with 100 μl of H2SO4 and read by spectrophotometry at 450 nm. When lactase activity was determined from intestinal sample, tissue samples were first dounce-homogenized in 0.9% NaCl on crushed ice. […] For each experiment, the background attributed to the remaining glucose in the samples was measured by incubating cells or cell extracts in lactose-free buffer. […]

PPARγ mRNA = PPARγ mRNA in duodenum and jejunum of rats after 5 days oral gavage; type: in vivo, Sprague Dawley rats; settings: 200 mg/kg/day oral gavage 5 days
Procedure: as §5, §6

Question: What does the source list for `Nc1ccc(O)c(C(=O)O)c1` [5ASA, 5-aminosalicylic acid]?
Answer: Fold Lactase RNA (LCT gene; 30 mM): 8.7 fold; LCT activity relative to control cells (LCT activity; Caco-2 cells, 30 mM): not; LCT mRNA expression relative to control (qPCR) (LCT mRNA; 30 mM): Significant increases; also recorded: induction

Question: `O=C(Nc1ccccc1)c1cc([N+](=O)[O-])ccc1Cl` [GW9662] was tested. Which “ability of GED to induce increased LCT mRNA expression in the presence of the antagonist” value (LCT mRNA; GED plus GW9662) did it give?
Answer: markedly reduced

Question: Which “Fold Lactase RNA” value (LCT gene; 1 μM) does the source give for `CCc1ccc(CCOc2ccc(CC3SC(=O)NC3=O)cc2)nc1` (stereo not drawn) [Pioglitazone, pioglitazone] here?
Answer: 17.9 fold

Question: And the “Fold Lactase RNA” value (LCT gene; 1 μM, listed as Pio)?
Answer: 17.93 fold

Question: What about the “LCT activity compared to untreated cells” value (LCT activity; Caco-2 cells, 1 μM, vs DMSO) of the same molecule?
Answer: > 2 fold

Question: And the “glucose uptake of Caco-2 cells” value (Caco-2 cells)?
Answer: did not significantly alter

Question: Which “LCT activity in duodenal tissue compared to CMC control” value (LCT) does the source give for `CCCCC/C=C\C=C\CCCCCCCCC(=O)O` [CLA, trans-10, cis-12 conjugated linoleic acid (CLA) isomer] here?
Answer: significant increase

Question: And the “LCT mRNA expression in duodenal tissue relative to CMC control” value (LCT)?
Answer: significant increase

Question: What about the “LCT mRNA expression in jejunal tissue relative to CMC control” value (LCT) of the same molecule?
Answer: not

Question: What about the “CLA-dependent induction of LCT activity in PPARγ knock-down cells” value [1] of the same molecule?
Answer: strongly compromised

Question: What about the “CLA-dependent induction of LCT expression in PPARγ knock-down cells” value [1] of the same molecule?
Answer: strongly compromised

Question: What about the “PPARγ mRNA expression levels in duodenum relative to CMC control” value (PPARγ mRNA) of the same molecule?
Answer: significant increase

Question: And the “PPARγ mRNA expression levels in jejunum relative to CMC control” value (PPARγ mRNA)?
Answer: significant increase

Question: What about the “increase in LCT activity over control levels, compared to 1 mM GED” value (LCT activity; Caco-2 cells, 1 mM) of the same molecule?
Answer: 2 fold

Question: What about the “LCT activity in Caco-2 cells” value (LCT activity; concentrations of 100 mM or more) of the same molecule?
Answer: significantly increased

Question: And the “LCT mRNA expression relative to control (qPCR)” value (LCT mRNA; 1 mM)?
Answer: as efficiently as 1 mM GED
